Holding throughout (format): in vivo
Data set [1] can be described thus: Pharmacokinetic test of compositions containing the compound of Formula (1) in rats. To be noted: rat, po, fasted, gavage, 20 mg/kg of compound of Formula (1), LC-MS/MS. The method, then: Twenty-four healthy rats were selected and randomly divided into 4 groups, 6 rats per group, which were respectively compound of Formula (1), Example 3, Example 4 and Example 7. During the experiment, the rats were fasted overnight before administration, and blood was collected from the orbit before administration, and the plasma was separated, which was taken as the blood concentration sample at 0 h. The gavage solutions were prepared by dispersion with purified water, the concentration of the gavage solutions was 2 mg/ml, and each rat was administered with the compound of Formula (1) at a dose of 20 mg/kg, respectively. After administration, blood samples were collected at 15 min, 0.5 h, 1 h, 2 h, 4 h, 6 h, and 8 h, and each sample was collected about 0.5 ml, anticoagulated with heparin sodium, placed on ice after collection, and centrifuged within 1 hour to separate plasma, which was stored at −80° C. for later test. The drug concentration in plasma was measured by LC-MS/MS.

Data set [2] in a line: Pharmacokinetic test of pharmaceutical preparations in rats. To be noted: both sexes, rat, po, fasted, gavage, 20 mg/kg of compound of Formula (1), LC-MS/MS. From the text: Thirty healthy rats were selected and randomly divided into 5 groups, 6 rats (3 females, 3 males) per group, which were respectively the groups of the compound of Formula (1), the capsules of Formulation Example 1, the granules of Formulation Example 4, the tablets of Formulation Example 7, and the soft capsules of Formulation Example 10. During the experiment, the rats were fasted overnight before administration, and blood was collected from the orbit before administration, and the plasma was separated, which was taken as the blood concentration sample at 0 h. The gavage solutions were prepared by dispersing with purified water, the concentration of the gavage solutions was 2 mg/ml, and each rat was administered with the compound of Formula (1) at a dose of 20 mg/kg respectively. After administration, blood samples were collected at 15 min, 0.5 h, 1 h, 2 h, 4 h, 6 h, and 8 h, and each sample was collected about 0.5 ml, anticoagulated with heparin sodium, placed on ice after collection, and centrifuged within 1 hour to separate plasma, which was stored at −80° C. for later test. The drug concentration in plasma was measured by LC-MS/MS.

A short description of data set [3]: Pharmacokinetic test of pharmaceutical preparations in beagle dogs. Particulars: po, fasted, gavage, 100 mg of compound of Formula (1) per dog, LC-MS/MS. The method, then: Nine healthy beagle dogs were selected, which were divided into the group of the compound of Formula (1), capsules of Formulation Example 1, and capsules of Formulation Example 11. During the experiment, the beagle dogs were fasted overnight before administration, and venous blood was collected before administration, and plasma was separated as the blood drug concentration sample at […]. Each beagle dog was administrated by gavage at a dose of 100 mg of the compound of Formula (1), respectively. After administration, blood samples were collected at 15 min, 0.5 h, 1 h, 2 h, 4 h, 8 h, and 24 h respectively. Each sample was collected about 0.5 ml, anticoagulated with heparin sodium, placed on ice after collection, and centrifuged within 1 hour to separate plasma, the drug concentration in plasma was measured by LC-MS/MS.

One molecule from patent US20230000863A1, “COMPOSITION CONTAINING AROMATIC HETEROCYCLIC COMPOUND IN AMORPHOUS FORM, AND PREPARATION METHOD THEREFOR AND USE THEREOF” (SHENZHEN CHIPSCREEN BIOSCIENCES CO., LTD., priority 2019, published 2023) can be followed below.

In the case of `C=CC(=O)N(C)c1cc(Nc2ncc(Cl)c(NCCCNC(=O)c3ccc(C#N)cc3)n2)ccc1F` [Compound of Formula (1)], the AUC(0-t) stood at 235 ng·h/mL in data set [1] (plasma 0-8 h), 235 ng·h/mL in data set [2] (plasma 0-8 h) and 30 ng·h/mL in data set [3] (plasma 0-24 h). Moreover, the results for the highest concentration (Cmax) in data set [1] (plasma), in data set [2] (plasma) and in data set [3] (plasma) were 243 ng/mL, 243 ng/mL and 22 ng/mL, respectively. In data set [3] (plasma), this molecule had a half-life of 24 min.
